Laboratory results from US11084783B2, “O-alkyl-benzylideneguanidine derivatives and therapeutic use for the treatment of disorders associated with an accumulation of misfolded proteins” (INFLECTIS BIOSCIENCE, priority 2014, dated 2021).

Tests used:
[1] = system: HeLa cells; test: Cytoprotection from ER stress (tunicamycin), cell viability by WST-8; format: cell-based; design: key to Cytoprotection from ER stress compared to guanabenz: +: lower cytoprotective effect compared to Guanabenz; ++: similar cytoprotective effect compared to Guanabenz; +++: higher cytoprotective effect compared to Guanabenz; conditions: for Cytoprotection from ER stress compared to guanabenz: HeLa cells, 6 hour exposure to tunicamycin 5 μg/mL, compounds 0.5-10 μM, viability 48 h or 72 h
Excerpt: Cytoprotection against ER stress can be measured by a suitable assay. For example, cytoprotection can be measured in HeLa cells in which ER stress is elicited by the addition of media containing tunicamycin, a mixture of homologous nucleoside antibiotics that inhibits the UDP-HexNAc: polyprenol-P HexNAc-1-P family of enzymes and is used to induce unfolded protein response. Cell viability can be detected in the presence and absence of inhibitor compounds after a set period of time, by measuring the reduction of WST-8 into formazan using a standard cell viability kit (such as Cell Viability Counting Kit-8 from Dojindo). Cytoprotection from ER stress is measured in terms of the percentage increase in viable cells (relative to control) after ER stress. Further details of a suitable assay are set forth in the accompanying Examples section.
This assay is described in Tsaytler et al. (Science 2011). HeLa Cells were cultured in Eagle's Minimum Essential Medium (EMEM) supplemented with Glutamine, Sodium Pyruvate, Non-Essential Amino Acids, Penicillin and Streptomycin containing 10% Foetal Bovine Serum (FBS), at 37° C. in 5% CO2 atmosphere. Cells were plated in 96 well plates at a density of 17,000 cells/mL the day before the treatment. ER stress was elicited by addition of 5 μg/mL tunicamycin (Sigma-Aldrich) together with PPP1R15A inhibitors (0.5-10 μM). Media were changed 6h later with fresh media and the cytoprotection was maintained by the addition of PPP1R15A inhibitors (0.5-10 μM). Cell viability was assessed by measuring the reduction of WST-8 into formazan using Cell Counting Kit-8 (Sigma) according to the supplier's recommendation, 48 h or 72h after tunicamycin treatment. Cytoprotection from ER stress is measured in terms of cytoprotective potency effect compared to the reference compound Guanabenz (Tsaytler et al., Science 2011) after ER stress: • ‘+’ no cytoprotective effect; • ‘+’ lower cytoprotective effect compared to Guanabenz; • ‘++’ similar cytoprotective effect compared to Guanabenz; • ‘+++’ higher cytoprotective effect compared to Guanabenz.
Table 1 summarizes the results of cytoprotective effect of different compounds of the invention, compared to guanabenz, after the stress induced by a 6 hour exposure of tunicamycin.

[2] = molecular target: T1, human alpha2A receptor (Homo sapiens, UniProt P08913); test: Functional GPCR assay for adrenergic α2A receptor (CellKey detection method); format: cell-based; conditions: agonist activity, CHO cells expressing human alpha2A receptor, impedance (CellKey); read-out: Functional adrenergic alpha2 receptor assay EC50
T1 construct: CHO cells endogenously expressing human alpha2A receptor; endogenous in cells; host or cells: CHO cells
T1 sequence (P08913 1-465): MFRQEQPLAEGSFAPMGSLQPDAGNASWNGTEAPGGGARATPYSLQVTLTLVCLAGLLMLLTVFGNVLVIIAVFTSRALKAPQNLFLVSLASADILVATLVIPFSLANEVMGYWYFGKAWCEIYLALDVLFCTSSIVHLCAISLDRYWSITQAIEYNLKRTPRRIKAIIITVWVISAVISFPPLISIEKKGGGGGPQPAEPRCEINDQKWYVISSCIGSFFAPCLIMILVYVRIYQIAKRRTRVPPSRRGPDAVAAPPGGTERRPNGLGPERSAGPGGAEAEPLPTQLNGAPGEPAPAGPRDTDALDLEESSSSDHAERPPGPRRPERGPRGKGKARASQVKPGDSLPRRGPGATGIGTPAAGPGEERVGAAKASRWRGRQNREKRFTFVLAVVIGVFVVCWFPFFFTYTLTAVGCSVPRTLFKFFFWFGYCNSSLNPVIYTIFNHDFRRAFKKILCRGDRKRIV
Experimental: The agonist activity of compounds was evaluated on CHO cells […] expressing human alpha2A receptor and was determined by measuring their effects on impedance modulation using the CellKey detection method. Cells were seeded onto 96-well plate at density of 6×10^4 cells/well in HBSS buffer (Invitrogen)+20 mM HEPES (Invitrogen) with 0.1% BSA and are allowed to equilibrate for 60 min at 28° C. before the start of the experiment. Plates were placed onto the system and measurements were made at a temperature of 28° C. Solutions were added simultaneously to all 96 wells using an integrated fluidics system: HBSS (basal control), reference agonist at 100 nM (stimulated control), reference agonist (EC50 determination) or the test compounds. Impedance measurements are monitored for 10 minutes after ligand addition. The standard reference agonist is epinephrine, which is tested in each experiment at several concentrations to generate a concentration-response curve from which its EC50 value is calculated.
Dose-response data from test compounds were analysed with Hill software using non-linear regression analysis of the concentration-response curves generated with mean replicate values using Hill equation curve fitting.

Row | SMILES | Cytoprotection from ER stress compared to guanabenz [1] | EC50 [2] [µM] | protection of Hela cells from ER stress (FIG. 1) ([1]; ER stress induced by 6 hour exposure to tunicamycin)
1 | CCONC(=N)N/N=C/c1c(F)cccc1Cl [Compound 17, 2-(2-chloro-6-fluorobenzylidene)-N-ethoxyhydrazinecarboximidamide] | +++ | > 33.3 | –
2 | CCO/N=C(\N)N/N=C/c1ccccc1Cl [Compound 10, 2-(2-chlorobenzylidene)-N′-ethoxyhydrazinecarboximidamide] | ++ | > 33.3 | –
3 | CCONC(=N)N/N=C/c1c(Cl)cccc1Cl [Compound 11, 2-(2,6-dichlorobenzylidene)-N-ethoxyhydrazinecarboximidamide] | +++ | > 0.7 | –
4 | CCCONC(=N)N/N=C/c1ccccc1Cl [Compound 12, 2-(2-chlorobenzylidene)-N-propoxyhydrazinecarboximidamide] | +++ | > 33.3 | dose dependent protection
